This note sets out measurements from patent US6960574B2, “Antagonists of RF-amide neuropeptides” (University of Florida, priority 2002, dated 2005).

The subject of this experiment is receptor labeled by the radioiodinated analogue of 1 (4, [125I]-YLFQPQRF-NH2); neuropeptide FF receptor. In words: Competitive radioligand binding against 4 ([125I]Y8F-amide). The conditions noted are these: mixture-based positional scanning; difference from averaged radioligand displacement of whole library (0); about 80 a.u. = 10-fold change in Ki. On the technique in general: Displacement assays read how much labelled ligand stays bound in the presence of the test substance.

Each structure is given as a SMILES string. Peptide text beside a SMILES is read from it. * marks the point of attachment. Dansyl = CN(C)c1cccc2c(S(=O)(=O)*)cccc12

Regarding `CC(C)[C@H](NS(=O)(=O)c1cccc2c(N(C)C)cccc12)C(=O)N[C@@H](CO)C(=O)N[C@@H](CCCNC(=N)N)C(N)=O` [Dansyl-VSR-amide], the “Relative Binding Index (RBI)” value came out at 16 a.u.
Take `CC(C)[C@H](NS(=O)(=O)c1cccc2c(N(C)C)cccc12)C(=O)N[C@H](C(=O)N[C@@H](CCCNC(=N)N)C(N)=O)[C@@H](C)O` [Dansyl-VTR-amide] (Dansyl-Val-Thr-Arg-NH2): the “Relative Binding Index (RBI)” value turned out to be 1 a.u.
As for `CC(C)[C@H](NC(=O)[C@@H](NS(=O)(=O)c1cccc2c(N(C)C)cccc12)C(C)C)C(=O)N[C@@H](CCCNC(=N)N)C(N)=O` [Dansyl-VVR-amide] (Dansyl-Val-Val-Arg-NH2), the “Relative Binding Index (RBI)” value is −9 a.u.
The result for `CC(C)[C@H](NS(=O)(=O)c1cccc2c(N(C)C)cccc12)C(=O)N[C@@H](Cc1c[nH]c2ccccc12)C(=O)N[C@@H](CCCNC(=N)N)C(N)=O` [Dansyl-VWR-amide] (Dansyl-Val-Trp-Arg-NH2) reads 4 a.u; that for `CC(C)[C@H](NS(=O)(=O)c1cccc2c(N(C)C)cccc12)C(=O)N[C@@H](Cc1ccc(O)cc1)C(=O)N[C@@H](CCCNC(=N)N)C(N)=O` [Dansyl-VYR-amide] (Dansyl-Val-Tyr-Arg-NH2), −6 a.u.
On to `C[C@H](NC(=O)[C@H](Cc1c[nH]c2ccccc12)NS(=O)(=O)c1cccc2c(N(C)C)cccc12)C(=O)N[C@@H](CCCNC(=N)N)C(N)=O` [Dansyl-WAR-amide] (Dansyl-Trp-Ala-Arg-NH2), for which the “Relative Binding Index (RBI)” value is given as −40 a.u.
`CN(C)c1cccc2c(S(=O)(=O)N[C@@H](Cc3c[nH]c4ccccc34)C(=O)N[C@@H](CC(=O)O)C(=O)N[C@@H](CCCNC(=N)N)C(N)=O)cccc12` [Dansyl-WDR-amide] (Dansyl-Trp-Asp-Arg-NH2): the “Relative Binding Index (RBI)” value was −9 a.u.
Take `CN(C)c1cccc2c(S(=O)(=O)N[C@@H](Cc3c[nH]c4ccccc34)C(=O)N[C@@H](CCC(=O)O)C(=O)N[C@@H](CCCNC(=N)N)C(N)=O)cccc12` [Dansyl-WER-amide] (Dansyl-Trp-Glu-Arg-NH2): the “Relative Binding Index (RBI)” value came out at 9 a.u.
As for `CN(C)c1cccc2c(S(=O)(=O)N[C@@H](Cc3c[nH]c4ccccc34)C(=O)N[C@@H](Cc3ccccc3)C(=O)N[C@@H](CCCNC(=N)N)C(N)=O)cccc12` [Dansyl-WFR-amide], the figure is 7 a.u; as for `CN(C)c1cccc2c(S(=O)(=O)N[C@@H](Cc3c[nH]c4ccccc34)C(=O)NCC(=O)N[C@@H](CCCNC(=N)N)C(N)=O)cccc12` [Dansyl-WGR-amide] (Dansyl-Trp-Gly-Arg-NH2), 14 a.u.
With `CN(C)c1cccc2c(S(=O)(=O)N[C@@H](Cc3c[nH]c4ccccc34)C(=O)N[C@@H](Cc3c[nH]cn3)C(=O)N[C@@H](CCCNC(=N)N)C(N)=O)cccc12` [Dansyl-WHR-amide] (Dansyl-Trp-His-Arg-NH2), the “Relative Binding Index (RBI)” value amounted to 3 a.u.
As to `CCC(C)C(NC(=O)C(Cc1c[nH]c2ccccc12)NS(=O)(=O)c1cccc2c(N(C)C)cccc12)C(=O)NC(CCCNC(=N)N)C(N)=O` (stereo not drawn) [Dansyl-WIR-amide] (Dansyl-Trp-Ile-Arg-NH2; configuration not given here), the “Relative Binding Index (RBI)” value was found to be 15 a.u.
Take `CN(C)c1cccc2c(S(=O)(=O)N[C@@H](Cc3c[nH]c4ccccc34)C(=O)N[C@@H](CCCCN)C(=O)N[C@@H](CCCNC(=N)N)C(N)=O)cccc12` [Dansyl-WKR-amide] (Dansyl-Trp-Lys-Arg-NH2): the “Relative Binding Index (RBI)” value was 6 a.u.
Take `CC(C)C[C@H](NC(=O)[C@H](Cc1c[nH]c2ccccc12)NS(=O)(=O)c1cccc2c(N(C)C)cccc12)C(=O)N[C@@H](CCCNC(=N)N)C(N)=O` [Dansyl-WLR-amide]: the “Relative Binding Index (RBI)” value was determined as 0 a.u.
In the case of `CSCC[C@H](NC(=O)[C@H](Cc1c[nH]c2ccccc12)NS(=O)(=O)c1cccc2c(N(C)C)cccc12)C(=O)N[C@@H](CCCNC(=N)N)C(N)=O` [Dansyl-WMR-amide] (Dansyl-Trp-Met-Arg-NH2), the “Relative Binding Index (RBI)” value is 9 a.u.
With `CN(C)c1cccc2c(S(=O)(=O)N[C@@H](Cc3c[nH]c4ccccc34)C(=O)N[C@@H](CC(N)=O)C(=O)N[C@@H](CCCNC(=N)N)C(N)=O)cccc12` [Dansyl-WNR-amide] (Dansyl-Trp-Asn-Arg-NH2), the “Relative Binding Index (RBI)” value is 10 a.u.
On to `CN(C)c1cccc2c(S(=O)(=O)N[C@@H](Cc3c[nH]c4ccccc34)C(=O)N3CCC[C@H]3C(=O)N[C@@H](CCCNC(=N)N)C(N)=O)cccc12` [Dansyl-WPR-amide] (Dansyl-Trp-Pro-Arg-NH2), for which the “Relative Binding Index (RBI)” value came out at 12 a.u.
For `CN(C)c1cccc2c(S(=O)(=O)N[C@@H](Cc3c[nH]c4ccccc34)C(=O)N[C@@H](CCC(N)=O)C(=O)N[C@@H](CCCNC(=N)N)C(N)=O)cccc12` [Dansyl-WQR-amide] (Dansyl-Trp-Gln-Arg-NH2), the “Relative Binding Index (RBI)” value is given as 22 a.u.
As to `CN(C)c1cccc2c(S(=O)(=O)N[C@@H](Cc3c[nH]c4ccccc34)C(=O)N[C@@H](CCCNC(=N)N)C(=O)N[C@@H](CCCNC(=N)N)C(N)=O)cccc12` [Dansyl-WRR-amide] (Dansyl-Trp-Arg-Arg-NH2), the “Relative Binding Index (RBI)” value is on record as 7 a.u.
Take `CN(C)c1cccc2c(S(=O)(=O)N[C@@H](Cc3c[nH]c4ccccc34)C(=O)N[C@@H](CO)C(=O)N[C@@H](CCCNC(=N)N)C(N)=O)cccc12` [Dansyl-WSR-amide] (Dansyl-Trp-Ser-Arg-NH2): the “Relative Binding Index (RBI)” value worked out at 29 a.u.
Take `C[C@@H](O)[C@H](NC(=O)[C@H](Cc1c[nH]c2ccccc12)NS(=O)(=O)c1cccc2c(N(C)C)cccc12)C(=O)N[C@@H](CCCNC(=N)N)C(N)=O` [Dansyl-WTR-amide] (Dansyl-Trp-Thr-Arg-NH2): the “Relative Binding Index (RBI)” value was 14 a.u.
As for `CC(C)[C@H](NC(=O)[C@H](Cc1c[nH]c2ccccc12)NS(=O)(=O)c1cccc2c(N(C)C)cccc12)C(=O)N[C@@H](CCCNC(=N)N)C(N)=O` [Dansyl-WVR-amide] (Dansyl-Trp-Val-Arg-NH2), the “Relative Binding Index (RBI)” value amounted to 4 a.u.
Consider `CN(C)c1cccc2c(S(=O)(=O)N[C@@H](Cc3c[nH]c4ccccc34)C(=O)N[C@@H](Cc3c[nH]c4ccccc34)C(=O)N[C@@H](CCCNC(=N)N)C(N)=O)cccc12` [Dansyl-WWR-amide] (Dansyl-Trp-Trp-Arg-NH2), for which the “Relative Binding Index (RBI)” value is 17 a.u.
Consider `CN(C)c1cccc2c(S(=O)(=O)N[C@@H](Cc3c[nH]c4ccccc34)C(=O)N[C@@H](Cc3ccc(O)cc3)C(=O)N[C@@H](CCCNC(=N)N)C(N)=O)cccc12` [Dansyl-WYR-amide] (Dansyl-Trp-Tyr-Arg-NH2), for which the “Relative Binding Index (RBI)” value turned out to be 7 a.u.
`C[C@H](NC(=O)[C@H](Cc1ccc(O)cc1)NS(=O)(=O)c1cccc2c(N(C)C)cccc12)C(=O)N[C@@H](CCCNC(=N)N)C(N)=O` [Dansyl-YAR-amide] (Dansyl-Tyr-Ala-Arg-NH2): the “Relative Binding Index (RBI)” value is −42 a.u.
As for `CN(C)c1cccc2c(S(=O)(=O)N[C@@H](Cc3ccc(O)cc3)C(=O)N[C@@H](CC(=O)O)C(=O)N[C@@H](CCCNC(=N)N)C(N)=O)cccc12` [Dansyl-YDR-amide] (Dansyl-Tyr-Asp-Arg-NH2), the “Relative Binding Index (RBI)” value is −11 a.u.
In the case of `CN(C)c1cccc2c(S(=O)(=O)N[C@@H](Cc3ccc(O)cc3)C(=O)N[C@@H](CCC(=O)O)C(=O)N[C@@H](CCCNC(=N)N)C(N)=O)cccc12` [Dansyl-YER-amide] (Dansyl-Tyr-Glu-Arg-NH2), the “Relative Binding Index (RBI)” value was determined as 7 a.u.
`CN(C)c1cccc2c(S(=O)(=O)N[C@@H](Cc3ccc(O)cc3)C(=O)N[C@@H](Cc3ccccc3)C(=O)N[C@@H](CCCNC(=N)N)C(N)=O)cccc12` [Dansyl-YFR-amide] (Dansyl-Tyr-Phe-Arg-NH2): the “Relative Binding Index (RBI)” value was 6 a.u.
As for `CN(C)c1cccc2c(S(=O)(=O)N[C@@H](Cc3ccc(O)cc3)C(=O)NCC(=O)N[C@@H](CCCNC(=N)N)C(N)=O)cccc12` [Dansyl-YGR-amide] (Dansyl-Tyr-Gly-Arg-NH2), the figure is 12 a.u; as for `CN(C)c1cccc2c(S(=O)(=O)N[C@@H](Cc3ccc(O)cc3)C(=O)N[C@@H](Cc3cnc[nH]3)C(=O)N[C@@H](CCCNC(=N)N)C(N)=O)cccc12` [Dansyl-YHR-amide] (Dansyl-Tyr-His-Arg-NH2), 1 a.u.
The result for `CC[C@H](C)[C@H](NC(=O)[C@H](Cc1ccc(O)cc1)NS(=O)(=O)c1cccc2c(N(C)C)cccc12)C(=O)N[C@@H](CCCNC(=N)N)C(N)=O` [Dansyl-YIR-amide] (Dansyl-Tyr-Ile-Arg-NH2) reads 13 a.u; that for `CN(C)c1cccc2c(S(=O)(=O)N[C@@H](Cc3ccc(O)cc3)C(=O)N[C@@H](CCCCN)C(=O)N[C@@H](CCCNC(=N)N)C(N)=O)cccc12` [Dansyl-YKR-amide] (Dansyl-Tyr-Lys-Arg-NH2), 5 a.u; that for `CC(C)C[C@H](NC(=O)[C@H](Cc1ccc(O)cc1)NS(=O)(=O)c1cccc2c(N(C)C)cccc12)C(=O)N[C@@H](CCCNC(=N)N)C(N)=O` [Dansyl-YLR-amide] (Dansyl-Tyr-Leu-Arg-NH2), −1 a.u.
`CSCC[C@H](NC(=O)[C@H](Cc1ccc(O)cc1)NS(=O)(=O)c1cccc2c(N(C)C)cccc12)C(=O)N[C@@H](CCCNC(=N)N)C(N)=O` [Dansyl-YMR-amide] (Dansyl-Tyr-Met-Arg-NH2): the “Relative Binding Index (RBI)” value came out at 7 a.u.
For `CN(C)c1cccc2c(S(=O)(=O)N[C@@H](Cc3ccc(O)cc3)C(=O)N[C@@H](CC(N)=O)C(=O)N[C@@H](CCCNC(=N)N)C(N)=O)cccc12` [Dansyl-YNR-amide] (Dansyl-Tyr-Asn-Arg-NH2), the “Relative Binding Index (RBI)” value came to 8 a.u.
For the molecule `CN(C)c1cccc2c(S(=O)(=O)N[C@@H](Cc3ccc(O)cc3)C(=O)N3CCC[C@H]3C(=O)N[C@@H](CCCNC(=N)N)C(N)=O)cccc12` [Dansyl-YPR-amide] (Dansyl-Tyr-Pro-Arg-NH2), the “Relative Binding Index (RBI)” value was found to be 10 a.u.
Take `CN(C)c1cccc2c(S(=O)(=O)N[C@@H](Cc3ccc(O)cc3)C(=O)N[C@@H](CCC(N)=O)C(=O)N[C@@H](CCCNC(=N)N)C(N)=O)cccc12` [Dansyl-YQR-amide] (Dansyl-Tyr-Gln-Arg-NH2): the “Relative Binding Index (RBI)” value is reported as 21 a.u.
